# Source: patent US8334298B2, “Treatment or prevention of ovarian hyperstimulation syndrome (OHSS) using a dopamine agonist” (Ferring International Center S.A., priority 2005, dated 2012)
# Assays:
# [1] = test system: women at risk of developing moderate-severe early OHSS; experiment: Prospective, randomized, double blind study of cabergoline in oocyte donors at risk of OHSS (Example 6); assay type: in vivo
# Method: Materials and Methods. Example 5 is a prospective, randomized and double blind study of 54 oocyte donors in whom 20-30 follicles greater than 12 mm developed, and from whom more than 20 oocytes were retrieved. Immediately after hCG administration, patients were divided in two groups based on a computer randomization: 1) the study group (n=29) received 0.5 mg oral cabergoline daily for eight days; the control group (n=25) received one tablet of placebo for the same eight days. The patients were monitored every 48 hours from the day of hCG administration (day 0) up through day 8. The presence of ascites was defined as a pocket of peritoneal fluid greater than 9 cm^2, with the patient in litotomy position seen on vaginal ultrasound. Also, regular blood parameters and serum PRL levels were recorded.
# [2] = test system: OHSS rats; experiment: Previous experiments of the group: cabergoline and vascular permeability in OHSS rats; assay type: in vivo; conditions: cabergoline 250 μg/kg/day; p<0.05
# Method: Vehicle control group (quinagolide 0 μg/kg) (n=8). Eight rats were implanted with prolactin placebo pellets, 5 days release, between 10:00 to 11:00 on day 26, just following hCG injection (see General Procedures, above). Six hours after pellet implantation, the rats in this group were orally administered vehicle solution (1:6 alcohol in water mixture) (without quinagolide). They received another oral vehicle administration of vehicle solution 24 hours later. Experimental groups (quinagolide at 0.1, 0.3, 1, 3, 10, 25, 50 μg/kg/day to 7 test groups of rats) (n=8 in each test group). The rats in these groups were implanted with prolactin pellets, 5 days release, between 10:00 to 11:00 on day 26, just following hCG injection (see General Procedures, above). […] In this manner, the desired 0.1, 0.3, 1, 3, 10, 25, 50 μg/kg doses to be assayed were achieved. Twenty four hours later, the rats in this group were administered with another dose of the same amounts of quinagolide. Positive (cabergoline) control group (n=6). These six rats were implanted with prolactin pellets, 5 days release, between 10:00 to 11:00 .m on day 26, just following hCG injection. […] Twenty four hours later, the rats in this group were administered with another dose of the same amount of cabergoline. […] Reconstitution and dilution process to reach appropriate quinagolide doses for oral administration. […]
compound,measurement,setting,value
"C=CCN1C[C@H](C(=O)N(CCCN(C)C)C(=O)NCC)C[C@@H]2c3cccc4[nH]cc(c34)C[C@H]21 [Cabergoline, cabergoline]",Haemoglobin day 4,"[1]; 0.5 mg oral cabergoline daily for eight days, n=29, mean ± SEM, p 0.006 vs control",12.7 ± 1.2 g/dL
same,Haemoglobin day 6,"[1]; 0.5 mg oral cabergoline daily for eight days, n=29, mean ± SEM, p 0.01 vs control",12.9 ± 1.2 g/dL
same,Free fluid area day 6,"[1]; 0.5 mg oral cabergoline daily for eight days, n=29, mean ± SEM, p 0.03 vs control",8.8 ± 1.7 cm2
same,Hematocrit day 6,"[1]; 0.5 mg oral cabergoline daily for eight days, n=29, mean ± SEM, p 0.04 vs control",38.9 ± 3.9%
same,Ascites %,"[1]; 0.5 mg oral cabergoline daily for eight days, 7/29 patients, ascites = pocket of peritoneal fluid greater than 9 cm^2, p 0.01 vs control",24.1 7/29%
same,Serum PRL levels,"[1]; 0.5 mg oral cabergoline daily, days 2, 4, 6 and 8 as compared to controls, p<0.0001",significantly lower
same,vascular permeability in OHSS rats,[2],significant decrease in vascular permeability
